Data published in patent publication US12144821B1, “Selective 3-prenyl 5-methyl ether, 7-o-rhamnoside flavone for the treatment of hepatic cancer” (KING FAISAL UNIVERSITY, priority 2024, dated 2024).

Assays:
Type in all cases: cell-based, human
HepG2 cells [1] = assay: Invasion assay; conditions: non-cytotoxic concentrations, FIGS. 3A-3B
Procedure: (§1) During the metastatic cascade of carcinomas, tumor migration and invasion is the first and most important steps. It involves profound changes in cell adhesion, allowing tumour cells to dissociate and migrate from the primary site. […] Several essential steps of metastasis, including migration (FIGS. 2A-2B) invasion (FIG. 3A-3B) of human liver cancer cells, are inhibited by the 3-prenyl 5-methyl ether, 7-O-rhamnoside.
(§2) The migration and invasion assays were conducted by photographing the cells that migrated the membrane (200× magnification). As illustrated in FIGS. 2A-2B HepG2 cells were treated with 3-prenyl 5-methyl ether, 7-O-rhamnoside at indicated doses for 24 hours. The percentage inhibition of migrating cells was quantified and expressed based on untreated cells (control) represented 100%. The migration was determined by the areas of the wound closure calculated from three microscopic fields per sample.
As illustrated in FIGS. 3A-3B, invasiveness was determined by counting cells in three microscopic fields per sample. The inhibitory percentage of invading cells was quantified and expressed with untreated cells (control) representing 100%. Values are mean±SD of three independent experiments. (p<0.01 compared untreated cells).

HepG2 cells [2] = assay: Migration assay (wound closure); conditions: non-cytotoxic concentrations, 24 hours, FIGS. 2A-2B
Procedure: as §1, §2

HepG2 cancer cell line = assay: Cell viability assay (MTT), antiproliferative screening; conditions: FIGS. 1A-1C
Procedure: Cells (HepG2) were provided from the American Type Culture Collection (ATCC) unless otherwise stated. Cells were grown in ATCC-formulated specific DMEM/F12 medium for each cell line with supplements of 5% fetal bovine serum, 10 U/ml penicillin, 10 μg/ml streptomycin, and 4% glutamine. All cell lines were placed in a humidified incubator a 37° C. in an atmosphere of 5% CO2 and 95% air. Cells were cultured into two groups. One as control cells and the other as cell lines treated for one day (3-prenyl 5-methyl ether, 7-O-rhamnoside-treated cells).
The cell viability will be tested using MTT. […] The culture supernatant was removed, the remaining MTT formazan crystals was dissolved in 400 μL of DMSO, and the absorbance was measured at 570 nm using an ELISA micro-plate reader (Bio-Tek Instruments, Winooski, VT, USA). The effect of 3-prenyl 5-methyl ether, 7-O-rhamnoside on cell viability was assessed as the percentage of viable cells compared with the vehicle-treated control cells, which were arbitrarily designated as 100%.
The cells were treated with increasing concentrations of 3-prenyl 5-methyl ether, 7-O-rhamnoside, (0-5, 10, 15, 20 and 25 μmol/mL for 24,48 and 72 h. The viability was assessed using the MTT assay. Values are mean±SD of three independent experiments. (p<0.01 compared untreated cells).

Compound: COc1cc(OC2OC(C)C(O)C(O)C2O)cc2oc(-c3ccc(O)cc3)c(CC=C(C)C)c(=O)c12 (stereo not shown) [3-prenyl 5-methyl ether, 7-O-rhamnoside, apigenin 3-prenyl 5-methyl ether, 7-O-rhamnoside]
- invasion of human liver cancer cells (HepG2 cells [1]): inhibited
- migration of human liver cancer cells (HepG2 cells [2]): inhibited
- cytotoxicity for the HepG2 cancer cell line (cell viability, MTT) (HepG2 cancer cell line; 0, 5, 10, 15, 20 and 25 μmol, 24, 48 and 72 hrs): potentially cytotoxic
- dose-dependent potentiation / enhancement of anti-proliferative effects (HepG2 cancer cell line; seen at both 15 and 20 μmol): Potentiation
